Source: ChEMBL document CHEMBL1155451, “Complexes of bacterial nicotinate mononucleotide adenylyltransferase with inhibitors: implication for structure-based drug design and improvement” (J Med Chem, 2010)
Activity calls are given as the source filed them. No cut-off for these calls is given here.

How the values were obtained:
[1] = molecular target: T1, Probable nicotinate-nucleotide adenylyltransferase (Bacillus anthracis, UniProt C3L5T6)
T1 sequence (C3L5T6 whole entry): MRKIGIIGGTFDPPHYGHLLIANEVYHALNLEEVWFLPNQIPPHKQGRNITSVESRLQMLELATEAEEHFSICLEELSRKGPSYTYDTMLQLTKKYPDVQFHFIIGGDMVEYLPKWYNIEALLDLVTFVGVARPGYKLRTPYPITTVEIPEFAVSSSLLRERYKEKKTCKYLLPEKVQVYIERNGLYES

[2] = molecular target: T2, Probable nicotinate-nucleotide adenylyltransferase (Bacillus anthracis) (UniProt C3L5T6); test: Inhibition of Bacillus anthracis nicotinate-nucleotide adenosyltransferase up to 100 uM preincubated for 5 mins before addition of substrate by malachite green reagent method
T2 sequence (whole entry): T1 sequence (C3L5T6 whole entry)

Row | Structure (SMILES) | IC50 [1] | inhibition [2]
1 | O=C(O)CN(/N=C/c1cccc2ccccc12)C(=O)CCC(=O)Nc1ccccc1Cl | > 200 µM | 
2 | CC(/C=N/NC(=O)CCC(=O)Nc1ccc(Br)cc1)c1ccc2ccccc2c1 (stereo not drawn) | > 200 µM | 
3 | O=C(O)CN(/N=C/c1ccc(/C=N/N(CC(=O)O)C(=O)CCC(=O)Nc2ccccc2Cl)cc1)C(=O)CCC(=O)Nc1ccccc1Cl |  | inactive
